Source: ChEMBL document CHEMBL3102753, “7-Azaindole-1-carboxamides as a new class of PARP-1 inhibitors” (Bioorg Med Chem, 2014)

Legend:
[1] = molecular target: T1, Poly [ADP-ribose] polymerase 1 (Homo sapiens, UniProt P09874); assay: Inhibition of recombinant human GST-fused PARP-1 expressed in Escherichia coli after 30 mins by fluorescence assay
Mus musculus [2] = assay: Toxicity in human MX1 cells harboring BRCA1 deletion and BRCA2 mutant xenografted SCID mouse assessed as mortality at 100 mg/kg, ip administered every 2 days for 2 weeks measured on day 38 relative to control; format: organism-based; design: dose 100 mg/kg, route intraperitoneal; conditions: in vivo
Mus musculus [3] = assay: Toxicity in human MX1 cells harboring BRCA1 deletion and BRCA2 mutant xenografted SCID mouse assessed as reduction of body weight at 100 mg/kg, ip administered every 2 days for 2 weeks measured on day 38 relative to control; format: organism-based; design: dose 100 mg/kg, route intraperitoneal; scale not given: the % may be the effect or the level left; conditions: in vivo
MX1 [4] = assay: Antitumor activity against human MX1 cells harboring BRCA1 deletion and BRCA2 mutant xenografted in SCID mouse assessed as reduction of tumor volume at 100 mg/kg, ip administered every 2 days for 2 weeks measured on day 38 relative to control; format: functional; design: scale not given: the % may be the effect or the level left; conditions: route intraperitoneal
[5] = molecular target: T1, Poly [ADP-ribose] polymerase 1; assay: Inhibition of PARP-1 in human HeLa cells assessed as decrease of H2O2-induced PARylation after 3 hrs by fluorescence assay; format: cell-based
A2780 [6] = assay: Resistant factor, ratio of IC50 for human A2780/DX cells to IC50 for human A2780 cells; format: functional
[7] = Antiproliferative activity against human A2780/DX cells after 72 hrs by SRB assay; format: functional, cell-based
A2780 [8] = assay: Antiproliferative activity against human A2780 cells after 72 hrs by SRB assay; format: functional, cell-based; conditions: A2780, 72 h
HCC1937 = assay: Antiproliferative activity against BRCA1 gene mutated human HCC1937 cells after 72 hrs by SRB assay; format: functional, cell-based
[9] = Antiproliferative activity against BRCA2 gene mutated human Capan1 cells after 72 hrs by cell counting; conditions: CAPAN-1, 72 h
Mus musculus [10] = assay: Toxicity in human MX1 cells harboring BRCA1 deletion and BRCA2 mutant xenografted SCID mouse assessed as mortality at 167 mg/kg, ip administered every 2 days for 2 weeks measured on day 38 relative to control; format: organism-based; design: dose 167 mg/kg, route intraperitoneal; conditions: in vivo
Mus musculus [11] = assay: Toxicity in human MX1 cells harboring BRCA1 deletion and BRCA2 mutant xenografted SCID mouse assessed as reduction of body weight at 167 mg/kg, ip administered every 2 days for 2 weeks measured on day 38 relative to control; format: organism-based; design: dose 167 mg/kg, route intraperitoneal; scale not given: the % may be the effect or the level left; conditions: in vivo
MX1 [12] = assay: Antitumor activity against human MX1 cells harboring BRCA1 deletion and BRCA2 mutant xenografted in SCID mouse assessed as reduction of tumor volume at 167 mg/kg, ip administered every 2 days for 2 weeks measured on day 38 relative to control; format: functional; design: scale not given: the % may be the effect or the level left; conditions: route intraperitoneal
[13] = Antiproliferative activity against BRCA2 gene mutated human Capan1 cells after 72 hrs by SRB assay; format: functional, cell-based; conditions: capan-1
[14] = Homo sapiens, HCC1937, 72 h, read-out: IC50

T1 sequence (P09874 whole entry, the tested form may be a part): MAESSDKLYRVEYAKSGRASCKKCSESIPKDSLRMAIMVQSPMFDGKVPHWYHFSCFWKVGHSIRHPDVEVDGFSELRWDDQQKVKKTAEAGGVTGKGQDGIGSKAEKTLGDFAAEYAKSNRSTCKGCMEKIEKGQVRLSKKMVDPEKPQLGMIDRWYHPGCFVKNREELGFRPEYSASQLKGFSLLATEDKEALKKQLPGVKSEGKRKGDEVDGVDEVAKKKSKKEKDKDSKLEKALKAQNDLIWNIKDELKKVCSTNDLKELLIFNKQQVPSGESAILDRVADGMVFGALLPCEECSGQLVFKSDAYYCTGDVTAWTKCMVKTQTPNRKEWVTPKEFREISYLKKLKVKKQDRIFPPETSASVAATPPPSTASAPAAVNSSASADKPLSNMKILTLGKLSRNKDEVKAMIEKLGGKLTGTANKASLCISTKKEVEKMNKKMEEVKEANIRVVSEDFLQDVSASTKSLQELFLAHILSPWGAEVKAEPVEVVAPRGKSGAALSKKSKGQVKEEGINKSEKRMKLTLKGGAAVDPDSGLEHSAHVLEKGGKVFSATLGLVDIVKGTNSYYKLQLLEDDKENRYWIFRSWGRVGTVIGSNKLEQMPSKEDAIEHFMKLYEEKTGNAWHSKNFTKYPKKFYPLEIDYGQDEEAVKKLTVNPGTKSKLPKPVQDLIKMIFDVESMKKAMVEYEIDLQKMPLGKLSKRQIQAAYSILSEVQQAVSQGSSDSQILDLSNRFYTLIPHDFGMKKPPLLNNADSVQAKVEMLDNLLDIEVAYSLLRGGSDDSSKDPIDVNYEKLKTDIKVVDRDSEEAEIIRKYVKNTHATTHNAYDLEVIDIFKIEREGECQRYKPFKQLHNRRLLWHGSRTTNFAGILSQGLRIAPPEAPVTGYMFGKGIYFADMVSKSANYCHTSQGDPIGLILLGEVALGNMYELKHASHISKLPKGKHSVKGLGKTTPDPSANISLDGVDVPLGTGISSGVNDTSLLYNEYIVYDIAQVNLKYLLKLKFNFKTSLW

| IC50 [1] [µM] | IC50 (HCC1937; [14]) [µM] | Compound | IC50 [9] [µM] | further results |
| --- | --- | --- | --- | --- |
| 3 | – | NC(=O)n1ccc2ccc(N3CCCCC3)nc21 | – | – |
| 1.56 | 41.2 | CN1CCN(Cc2ccc(-c3ccc4ccn(C(N)=O)c4n3)cc2)CC1 | 54.5 | – |
| 0.27 | > 200 | NC(=O)n1ccc2ccc(-c3ccccc3)nc21 | > 200 | – |
| – | – | O=C(c1cc(Cc2n[nH]c(=O)c3ccccc23)ccc1F)N1CCN(C(=O)C2CC2)CC1 [OLAPARIB] | 6.3 | Activity (Mus musculus [10]): Non-toxic; Activity (Mus musculus [11]): 0%; Activity (MX1 [12]): 35%; IC50 [7]: 41.9 µM; IC50 (A2780 [8]): 1 µM; IC50 (HCC1937; Homo sapiens, HCC1937, 72 h): 10.3 µM |
| > 5 | 182 | NC(=O)Cn1ccc2ccc(-c3ccc(CN4CCCC4)cc3)nc21 | 182 | – |
| 0.28 | 15 | NC(=O)n1ccc2ccc(-c3ccc(CN4CCCC4)cc3)nc21 | 21.7 | – |
| 0.93 | 61.4 | NC(=O)n1ccc2ccc(-c3ccc[nH]3)nc21 | 87.1 | – |
| 1.12 | – | NC(=O)n1ccc2ccc(-c3ccc(F)c(C(=O)N4CCN(C(=O)C5CC5)CC4)c3)nc21 | – | – |
| > 5 | > 200 | NC(=O)n1ccc2ccc(-c3ccc(-c4ccccc4)cc3)nc21 | 81.8 | – |
| 0.77 | 111 | CN1CCN(c2ccc3ccn(C(N)=O)c3n2)CC1 | 138 | – |
| 0.22 | > 200 | NC(=O)n1ccc2ccc(N3CCCC3)nc21 | 83.8 | – |
| – | – | C[C@]1(c2nc3c(C(N)=O)cccc3[nH]2)CCCN1 [VELIPARIB] | – | IC50 [13]: 39.7 µM; IC50 (HCC1937; hcc1937, read-out: IC50): 97.2 µM |
| 0.63 | 13.5 | CN(C)Cc1ccc(-c2ccc3ccn(C(N)=O)c3n2)cc1 | 19.7 | – |
| 0.27 | > 200 | NC(=O)n1ccc2ccc(-c3ccc(F)cc3)nc21 | 61.1 | – |
| 3 | – | NC(=O)n1ccc2ccc(-c3ccccc3F)nc21 | – | – |
| 2.5 | > 200 | NC(=O)n1ccc2cccnc21 | > 200 | – |
| 3.76 | > 200 | COc1ccc(-c2ccc3ccn(C(N)=O)c3n2)cc1 | 162 | – |
| 2.1 | 17.2 | NC(=O)n1ccc2ccc(-c3ccc(CN4CCOCC4)cc3)nc21 | 15.9 | – |
| 2.9 | 72.3 | NC(=O)n1ccc2ccc(-c3ccc(C(=O)N4CCCCC4)cc3)nc21 | 24.4 | – |
| 0.88 | > 200 | CN(C)c1ccc(-c2ccc3ccn(C(N)=O)c3n2)cc1 | > 200 | – |

| Compound | IC50 [1] [µM] | IC50 (HCC1937; [14]) [µM] | IC50 [9] [µM] | further results |
| --- | --- | --- | --- | --- |
| NC(=O)n1ccc2ccc(-c3ccc(CN4CCCCC4)cc3)nc21 | 0.07 | 19.4 | 22 | Activity (Mus musculus [2]): Non-toxic; Activity (Mus musculus [3]): 1%; Activity (MX1 [4]): 36%; EC50 [5]: 0.4 µM; Ratio IC50 (A2780 [6]): 3.9; IC50 [7]: 11.2 µM; IC50 (A2780 [8]): 2.9 µM |
